≈ marks a conversion by molar mass, not a printed value.
Legend:
Test in all cases: ≥ marks a high value that may be exact or a test limit, other limits are often not marked, values filed in µg/mL are converted to µM
[1] = test system: Pseudomonas aeruginosa ATCC BAA-427
[2] = test system: Bacillus subtilis ATCC 6633
[3] = test system: Klebsiella pneumoniae ATCC 27736
[4] = test system: Pseudomonas aeruginosa H1001
Escherichia coli MG1655 = test system: Escherichia coli MG1655
Escherichia coli BL21 = test system: Escherichia coli BL21
[5] = test system: Staphylococcus epidermidis

Row | SMILES | MIC [1] | MIC [2] | MIC [3] | MIC [4] | also measured
1 | CC[C@H](C)[C@H](NC(=O)CNC(=O)[C@H](CCCN=C(N)N)NC(=O)[C@H](Cc1ccccc1)NC(=O)[C@@H](NC(=O)[C@H](Cc1cnc[nH]1)NC(=O)[C@H](Cc1cnc[nH]1)NC(=O)[C@H](Cc1ccccc1)NC(=O)[C@@H](N)Cc1ccccc1)[C@@H](C)CC)C(=O)N[C@H](C(=O)N[C@@H](Cc1cnc[nH]1)C(=O)N[C@H](C(=O)NCC(=O)N[C@@H](CCCCN)C(=O)N[C@H](C(=O)N[C@H](C(=O)N[C@@H](Cc1cnc[nH]1)C(=O)N[C@@H](CCCN=C(N)N)C(=O)N[C@@H](CC(C)C)C(=O)N[C@H](C(=O)N[C@H](C(=O)NCC(N)=O)[C@@H](C)O)C(C)C)[C@@H](C)CC)[C@@H](C)O)[C@@H](C)CC)C(C)C [FFHHIFRGIVHIGKTIHRLVTG] | 4 µM (≈ 10.3 µg/mL) | 6 µM (≈ 15.5 µg/mL) | 3 µM (≈ 7.76 µg/mL) |  | 
2 | CC[C@H](C)[C@H](NC(=O)CNC(=O)[C@H](CCCN=C(N)N)NC(=O)[C@H](Cc1ccccc1)NC(=O)[C@@H](NC(=O)[C@H](Cc1cnc[nH]1)NC(=O)[C@H](Cc1cnc[nH]1)NC(=O)[C@H](Cc1ccccc1)NC(=O)[C@@H](N)Cc1ccccc1)C(C)C)C(=O)N[C@H](C(=O)N[C@@H](Cc1cnc[nH]1)C(=O)N[C@H](C(=O)NCC(=O)N[C@@H](CCCCN)C(=O)N[C@H](C(=O)N[C@H](C(=O)N[C@@H](Cc1cnc[nH]1)C(=O)N[C@@H](CCCN=C(N)N)C(=O)N[C@@H](CC(C)C)C(=O)N[C@H](C(=O)N[C@H](C(=O)NCC(N)=O)[C@@H](C)O)C(C)C)[C@@H](C)CC)[C@@H](C)O)C(C)C)C(C)C [FFHHVFRGIVHVGKTIHRLVTG] | 12 µM (≈ 30.7 µg/mL) | 8 µM (≈ 20.5 µg/mL) | 6 µM (≈ 15.3 µg/mL) |  | 
3 | CC[C@H](C)[C@H](N)C(=O)N[C@@H](CCCCN)C(=O)N[C@@H](CC(C)C)C(=O)N[C@@H](CC(C)C)C(=O)N[C@@H](CS)C(=O)N[C@@H](CCCN=C(N)N)C(=O)N[C@H](C(=O)N[C@@H](Cc1cnc[nH]1)C(=O)N[C@@H](CCCCN)C(=O)N[C@@H](CCCCN)C(=O)O)C(C)C [IKLLCRVHKK] |  |  |  | 10.1 µM (≈ 12.5 µg/mL) | 
4 | NCCCC[C@H](NC(=O)[C@H](Cc1c[nH]c2ccccc12)NC(=O)[C@H](Cc1c[nH]c2ccccc12)NC(=O)[C@@H]1CCCN1C(=O)[C@H](Cc1c[nH]c2ccccc12)NC(=O)[C@@H](N)CCCCN)C(=O)N[C@@H](Cc1c[nH]c2ccccc12)C(=O)N[C@@H](CCCN=C(N)N)C(=O)N[C@@H](CCCN=C(N)N)C(N)=O [KWPWWKWRR] |  |  |  | ≥ 87.5 µM | 
5 | CC[C@H](C)[C@H](NC(=O)[C@H](CCCCN)NC(=O)[C@H](CCCCN)NC(=O)[C@H](Cc1cnc[nH]1)NC(=O)[C@@H](NC(=O)[C@H](CCCN=C(N)N)NC(=O)[C@H](CS)NC(=O)[C@H](CC(C)C)NC(=O)[C@@H](N)CC(C)C)C(C)C)C(=O)N[C@@H](C)C(=O)O [LLCRVHKKIA] |  |  |  | ≥ 42.4 µM | 
6 | CC[C@H](C)[C@H](NC(=O)[C@H](CCCCN)NC(=O)[C@H](CCCN=C(N)N)NC(=O)[C@H](CCCCN)NC(=O)[C@H](CCCCN)NC(=O)[C@H](CCCCN)NC(=O)[C@H](Cc1c[nH]c2ccccc12)NC(=O)[C@H](CCCCN)NC(=O)[C@H](CC(C)C)NC(=O)[C@H](Cc1c[nH]c2ccccc12)NC(=O)[C@H](CCCN=C(N)N)NC(=O)[C@H](CC(=O)O)NC(=O)[C@H](CCSC)NC(C)=O)C(=O)N[C@@H](CCCN=C(N)N)C(=O)N[C@@H](CCCN=C(N)N)C(=O)N[C@@H](CCCN=C(N)N)C(=O)N[C@@H](CCCN=C(N)N)C(=O)N[C@@H](CCCN=C(N)N)C(=O)N[C@@H](CCCN=C(N)N)C(=O)N[C@@H](CCCN=C(N)N)C(=O)N[C@@H](CCCN=C(N)N)C(=O)N[C@@H](CCCN=C(N)N)C(=O)N[C@@H](CCCN=C(N)N)C(=O)N[C@@H](CCCN=C(N)N)C(N)=O [MDRWLKWKKKRKIRRRRRRRRRRR] |  |  |  |  | MIC (Escherichia coli MG1655): 12 µM (≈ 42.9 µg/mL); MIC (Escherichia coli BL21): 6 µM (≈ 21.5 µg/mL); MIC [5]: 4 µM (≈ 14.3 µg/mL)

Source: DBAASP
